Laboratory results as given in patent US20220409620A1, “REDUCING IMMUNOGENICITY TO PEGLOTICASE” (Horizon Pharma Rheumatology LLC, priority 2016, published 2022).

Test system: adult patients with uncontrolled gout
Assay: Serum uric acid (sUA) levels and sUA responder rate, open-label study of pegloticase with MTX (MIRROR OL)
Assay type: in vivo, human
Details: mITT Population
Description: The primary objective is to estimate the response rate during Month 6 (Weeks 20, 22, and 24), as measured by the sustained normalization of serum uric acid (SUA) to <6 mg/dL for at least 80% of the time during Month 6 in subjects receiving KXX with MTX.
The primary efficacy outcome endpoint is the sustained normalization of SUA to <6 mg/dL for at least 80% of the time during month 6 (weeks 20, 22, and 24) in subjects receiving KXX with MTX. […] Participants who achieve this endpoint were classified as “responders.” Serum uric acid (SUA) responders may also be defined as participants achieving and maintaining SUA <6 mg/dL for at least 80% of the time during Month 6 (Weeks 20, 22, and 24).
Blood samples may be collected prior to each pegloticase infusion for measurement of SUA levels using the Beckman Coulter AU System Uric Acid procedure. Participants were declared “non-responders” if there were SUA measures >6 mg/dL at 2 consecutive study visits beginning with the week 2 visit. […] This assumption and subsequent discontinuation of pegloticase was consistent with the protocol of large phase III randomized controlled trials and the product label. A formal stopping rule was 2 occasions of SUA levels of greater than 6 mg/dL.
Clinical Chemistry—Blood samples were collected prior to each pegloticase infusion for measurement of SUA levels (primary efficacy parameter) using the Beckman Coulter AU System Uric Acid procedure. In this procedure uric acid is converted to hydrogen peroxide. Hydrogen peroxide reacts with reagent to produce a chromophore which is read bichromatically at 660/800 nm. The amount of dye formed is proportional to the uric acid concentration in the sample.
Serum samples for measurement of SUA levels were collected at the Screening Visit, the Week −4 Visit (prior to the first dose of MTX), and the Week −2 Visit during the MTX Run-in Period; within 48 hours prior to each pegloticase infusion and after the end of each pegloticase infusion prior to discharge from the site during the Pegloticase+IMM Period; at the non-infusion Week 52/End of Study/Early Termination Visits and at the Post Treatment 3 and 6 Month Follow-up Visits. Additional serum samples for SUA levels were collected at optional non-infusion (Frequent Sampling) Visits at Weeks 1 and 7. […] Subjects with SUA level >6 mg/dL at 2 consecutive visits beginning at Week 2 visit discontinued treatment, completed the End of Pegloticase Infusion Visit procedures within 2 weeks and continued the subject visits according to the protocol (without treatment).
Efficacy analyses were performed using the modified intention-to-treat (mITT) population, defined as all enrolled subjects who received ≥1 dose of pegloticase. The proportion of Month 6 responders was summarized, along with a 95% confidence interval for the proportion. The proportion of Month 3 and overall (Months 3 and 6 combined) responders was analyzed similarly.
A subject was declared a non-responder if the subject had SUA level >6 mg/dL at 2 consecutive study visits beginning with the Week 2 Visit. In addition, a subject who withdraws from study treatment for any reason after the first dose of pegloticase in the KXX+MTX Period and prior to Month 6 (for the primary endpoint) or Month 3 (for the secondary endpoint) was considered a non-responder if SUA values were not collected at the planned time points.
Patients were administered oral MTX (15 mg/week) and folate (1 mg/day) 4 weeks prior to the first pegloticase infusion (Day 1) and throughout the pegloticase treatment period. Blood was drawn prior to each infusion to measure sUA level, monitor clinical parameters, and examine for ADA development. All patients followed typical IR prophylaxis protocols (fexofenadine one day before and the morning of each infusion and acetaminophen and IV corticosteroid the morning of each infusion).

## pegloticase
Week 20 - Post-Infusion
  Serum Uric Acid, Change from Baseline, Mean (SD): −8.97 (2.810) mg/dL
  Serum Uric Acid, Change from Baseline, Median: -8.80 mg/dL
  Serum Uric Acid, Observed, Mean (SD): 0.30 (0.000) mg/dL
  Serum Uric Acid, Observed, Median: 0.30 mg/dL
  sUA <6 mg/dL, n (%): 11 (100%)
Week 20 - Pre-Infusion
  Serum Uric Acid, Change from Baseline, Mean (SD): −8.97 (2.810) mg/dL
  Serum Uric Acid, Change from Baseline, Median: -8.80 mg/dL
  Serum Uric Acid, Observed, Mean (SD): 0.30 (0.000) mg/dL
  Serum Uric Acid, Observed, Median: 0.30 mg/dL
  sUA <6 mg/dL, n (%): 11 (100%)
Week 22 - Post-Infusion
  Serum Uric Acid, Change from Baseline, Mean (SD): −8.97 (2.810) mg/dL
  Serum Uric Acid, Change from Baseline, Median: -8.80 mg/dL
  Serum Uric Acid, Observed, Mean (SD): 0.30 (0.000) mg/dL
  Serum Uric Acid, Observed, Median: 0.30 mg/dL
  sUA <6 mg/dL, n (%): 11 (100%)
Week 22 - Pre-Infusion
  Serum Uric Acid, Change from Baseline, Mean (SD): −8.97 (2.810) mg/dL
  Serum Uric Acid, Change from Baseline, Median: -8.80 mg/dL
  Serum Uric Acid, Observed, Mean (SD): 0.30 (0.000) mg/dL
  Serum Uric Acid, Observed, Median: 0.30 mg/dL
  sUA <6 mg/dL, n (%): 11 (100%)
Week 24 - Post-Infusion
  Serum Uric Acid, Change from Baseline, Mean (SD): −9.18 (4.135) mg/dL
  Serum Uric Acid, Change from Baseline, Median: -9.30 mg/dL
  Serum Uric Acid, Observed, Mean (SD): 0.30 (0.000) mg/dL
  Serum Uric Acid, Observed, Median: 0.30 mg/dL
  sUA <6 mg/dL, n (%): 5 (100%)
Week 24 - Pre-Infusion
  Serum Uric Acid, Change from Baseline, Mean (SD): −8.97 (2.810) mg/dL
  Serum Uric Acid, Change from Baseline, Median: -8.80 mg/dL
  Serum Uric Acid, Observed, Mean (SD): 0.30 (0.000) mg/dL
  Serum Uric Acid, Observed, Median: 0.30 mg/dL
  sUA <6 mg/dL, n (%): 11 (100%)
Week 26 - Pre-Infusion
  Serum Uric Acid, Change from Baseline, Mean (SD): −9.11 (3.293) mg/dL
  Serum Uric Acid, Change from Baseline, Median: -8.95 mg/dL
  Serum Uric Acid, Observed, Mean (SD): 0.30 (0.000) mg/dL
  Serum Uric Acid, Observed, Median: 0.30 mg/dL
  sUA <6 mg/dL, n (%): 8 (100%)
Week 28 - Pre-Infusion
  Serum Uric Acid, Change from Baseline, Mean (SD): −9.11 (3.293) mg/dL
  Serum Uric Acid, Change from Baseline, Median: -8.95 mg/dL
  Serum Uric Acid, Observed, Mean (SD): 0.30 (0.000) mg/dL
  Serum Uric Acid, Observed, Median: 0.30 mg/dL
  sUA <6 mg/dL, n (%): 8 (100%)
Week 30 - Pre-Infusion
  Serum Uric Acid, Change from Baseline, Mean (SD): −9.11 (3.293) mg/dL
  Serum Uric Acid, Change from Baseline, Median: -8.95 mg/dL
  Serum Uric Acid, Observed, Mean (SD): 0.30 (0.000) mg/dL
  Serum Uric Acid, Observed, Median: 0.30 mg/dL
  sUA <6 mg/dL, n (%): 8 (100%)
Week 32 - Post-Infusion
  Serum Uric Acid, Change from Baseline, Mean (SD): −9.11 (3.293) mg/dL
  Serum Uric Acid, Change from Baseline, Median: -8.95 mg/dL
  Serum Uric Acid, Observed, Mean (SD): 0.30 (0.000) mg/dL
  Serum Uric Acid, Observed, Median: 0.30 mg/dL
  sUA <6 mg/dL, n (%): 8 (100%)
Week 32 - Pre-Infusion
  Serum Uric Acid, Change from Baseline, Mean (SD): −8.99 (2.961) mg/dL
  Serum Uric Acid, Change from Baseline, Median: -8.95 mg/dL
  Serum Uric Acid, Observed, Mean (SD): 0.30 (0.000) mg/dL
  Serum Uric Acid, Observed, Median: 0.30 mg/dL
  sUA <6 mg/dL, n (%): 10 (100%)
Week 34 - Post-Infusion
  Serum Uric Acid, Change from Baseline, Mean (SD): −9.11 (3.293) mg/dL
  Serum Uric Acid, Change from Baseline, Median: -8.95 mg/dL
  Serum Uric Acid, Observed, Mean (SD): 0.30 (0.000) mg/dL
  Serum Uric Acid, Observed, Median: 0.30 mg/dL
  sUA <6 mg/dL, n (%): 8 (100%)
Week 34 - Pre-Infusion
  Serum Uric Acid, Change from Baseline, Mean (SD): −8.47 (3.248) mg/dL
  Serum Uric Acid, Change from Baseline, Median: -7.95 mg/dL
  Serum Uric Acid, Observed, Mean (SD): 0.82 (1.046) mg/dL
  Serum Uric Acid, Observed, Median: 0.30 mg/dL
  sUA <6 mg/dL, n (%): 10 (100%)
Week 36 - Post-Infusion
  Serum Uric Acid, Change from Baseline, Mean (SD): −9.38 (3.799) mg/dL
  Serum Uric Acid, Change from Baseline, Median: -9.20 mg/dL
  Serum Uric Acid, Observed, Mean (SD): 0.30 (0.000) mg/dL
  Serum Uric Acid, Observed, Median: 0.30 mg/dL
  sUA <6 mg/dL, n (%): 6 (100%)
Week 36 - Pre-Infusion
  Serum Uric Acid, Change from Baseline, Mean (SD): −7.90 (4.094) mg/dL
  Serum Uric Acid, Change from Baseline, Median: -8.60 mg/dL
  Serum Uric Acid, Observed, Mean (SD): 1.58 (2.425) mg/dL
  Serum Uric Acid, Observed, Median: 0.30 mg/dL
  sUA <6 mg/dL, n (%): 8 (88.9%)
Week 38 - Pre-Infusion
  Serum Uric Acid, Change from Baseline, Mean (SD): −8.41 (5.229) mg/dL
  Serum Uric Acid, Change from Baseline, Median: -8.60 mg/dL
  Serum Uric Acid, Observed, Mean (SD): 0.93 (1.583) mg/dL
  Serum Uric Acid, Observed, Median: 0.30 mg/dL
  sUA <6 mg/dL, n (%): 5 (100%)
Week 40 - Pre-Infusion
  Serum Uric Acid, Change from Baseline, Mean (SD): −11.30 (3.686) mg/dL
  Serum Uric Acid, Change from Baseline, Median: -9.80 mg/dL
  Serum Uric Acid, Observed, Mean (SD): 0.30 (0.000) mg/dL
  Serum Uric Acid, Observed, Median: 0.30 mg/dL
  sUA <6 mg/dL, n (%): 3 (100%)
Week 42 - Pre-Infusion
  Serum Uric Acid, Change from Baseline, Mean (SD): −11.30 (3.686) mg/dL
  Serum Uric Acid, Change from Baseline, Median: -9.80 mg/dL
  Serum Uric Acid, Observed, Mean (SD): 0.30 (0.000) mg/dL
  Serum Uric Acid, Observed, Median: 0.30 mg/dL
  sUA <6 mg/dL, n (%): 3 (100%)
Week 44 - Pre-Infusion
  Serum Uric Acid, Change from Baseline, Mean (SD): −10.55 (4.625) mg/dL
  Serum Uric Acid, Change from Baseline, Median: -9.80 mg/dL
  Serum Uric Acid, Observed, Mean (SD): 1.05 (1.305) mg/dL
  Serum Uric Acid, Observed, Median: 0.30 mg/dL
  sUA <6 mg/dL, n (%): 3 (100%)
Week 46 - Pre-Infusion
  Serum Uric Acid, Change from Baseline, Mean (SD): −12.65 (4.031) mg/dL
  Serum Uric Acid, Change from Baseline, Median: -12.65 mg/dL
  Serum Uric Acid, Observed, Mean (SD): 0.30 (0.000) mg/dL
  Serum Uric Acid, Observed, Median: 0.30 mg/dL
  sUA <6 mg/dL, n (%): 2 (100%)
Week 48 - Post-Infusion
  Serum Uric Acid, Change from Baseline, Mean (SD): −10.33 (4.922) mg/dL
  Serum Uric Acid, Change from Baseline, Median: -9.80 mg/dL
  Serum Uric Acid, Observed, Mean (SD): 1.60 (2.252) mg/dL
  Serum Uric Acid, Observed, Median: 0.30 mg/dL
  sUA <6 mg/dL, n (%): 3 (100%)
Week 48 - Pre-Infusion
  Serum Uric Acid, Change from Baseline, Mean (SD): −12.65 (4.031) mg/dL
  Serum Uric Acid, Change from Baseline, Median: -12.65 mg/dL
  Serum Uric Acid, Observed, Mean (SD): 0.30 (0.000) mg/dL
  Serum Uric Acid, Observed, Median: 0.30 mg/dL
  sUA <6 mg/dL, n (%): 2 (100%)
Week 50 - Post-Infusion
  Serum Uric Acid, Change from Baseline, Mean (SD): −10.57 (4.598) mg/dL
  Serum Uric Acid, Change from Baseline, Median: -9.80 mg/dL
  Serum Uric Acid, Observed, Mean (SD): 1.37 (1.848) mg/dL
  Serum Uric Acid, Observed, Median: 0.30 mg/dL
  sUA <6 mg/dL, n (%): 3 (100%)
Week 50 - Pre-Infusion
  Serum Uric Acid, Change from Baseline, Mean (SD): −12.65 (4.031) mg/dL
  Serum Uric Acid, Change from Baseline, Median: -12.65 mg/dL
  Serum Uric Acid, Observed, Mean (SD): 0.30 (0.000) mg/dL
  Serum Uric Acid, Observed, Median: 0.30 mg/dL
  sUA <6 mg/dL, n (%): 2 (100%)
Week 52/ET
  Serum Uric Acid, Change from Baseline, Mean (SD): −12.65 (4.031) mg/dL
  Serum Uric Acid, Change from Baseline, Median: -12.65 mg/dL
  Serum Uric Acid, Observed, Mean (SD): 0.30 (0.000) mg/dL
  Serum Uric Acid, Observed, Median: 0.30 mg/dL
  sUA <6 mg/dL, n (%): 2 (100%)
